# No end group written: not given here.
# Legend:
# [1] = system: hippocampal cells in organotypic cultures; assay: Organotypic hippocampal tissue culture toxicity (trypan blue, LDH, AChE immunocytochemistry); assay type: cell-based, rats; conditions: for cellular damage in hippocampal sections compared to control samples: semi-acute application for 1 hour, AChE-peptide and/or NMDA
# Description: The organotype tissue culture technique requires postnatal (day 5–7) rats given terminal anaesthesia followed by decapitation. Sections of hippocampus, 400 μm thick, are prepared and then plated on a plasma/thrombin clot. A serum-based media is added to these cultures, which can then be maintained at constant temperature (35° C.) for up to 21 days. After each study, cultures are stained with trypan blue to assess cell viability, in addition, after every removal of serum media, cultures are assayed for lactate dehydrogenase (LDH—a soluble cytoplasmic enzyme used as an index of cellular damage).
# Following chronic studies (cultures are maintained for 21 days and treated with AChE-peptide and/or NMDA every 3–4 days), cultured cells are immunocytochemically stained for acetylcholinesterase in order to assess what action, if any, the AChE-peptide has on cell number.
# [2] = system: neurons in the substantia nigra
# anti-peptide antibody = assay: Competition assay for binding of antibody to immobilised AChE-peptide; design: species or system Rabbits; conditions: competitor preincubated with antibody in solution; APP and BuChE peptide at even excessive doses
# Description: In order to be sure that the antibody recognition of peptides occurs without the possible distortion due to the binding of the peptide to a charged plastic surface, an assay was used in which the critical interaction is studied in solution. […] An aliquot of the antibody was preincubated with potential competitors for binding to the AChE-peptide before presenting the resulting mixture to the peptide bound to the well.
# substantia nigra = assay: Behavioural studies: infusion into one substantia nigra, amphetamine challenge, circling; assay type: in vivo, rats; conditions: infused unilaterally into the substantia nigra
# Description: In these experiments, rats were chronically implanted with a cannula in one substantia nigra and left to recover. After a period of about 3 days, they were infused with either a saline control solution, or a solution containing the 14-mer AChE peptide of the invention at a dose of 1 μl of 10^−5M. After a single infusion, they were challenged daily with a systemic application of amphetamine for the subsequent 10 days.
molecule,measurement,setting,value
"CN[C@H](CC(=O)O)C(=O)O [NMDA, N-methyl-D-aspartate, reference compound]",cellular damage in hippocampal sections compared to control samples,[1],extensive cellular damage
AEFHRWSSYMVHWK [AChE peptide],LDH assays (biochemical studies),"[1]; chronic cultures, 21 days, treated every 3–4 days",support the proposed toxic action
same,toxicity detected histochemically,[1]; culture period of three weeks,Toxic effects are also detectable
same,interaction with excito-toxic effects of NMDA,[1]; organotypic cultures,synergistic
same,time of application until effect can be seen,[1]; organotypic cultures,one
same,toxic effects on hippocampal cells,[1]; organotypic cultures,direct toxic effects
same,cellular damage in hippocampal sections compared to control samples,[1],extensive cellular damage
same,state of the cell on application of NMDA after peptide treatment,[2],severe metabolic stress of the cell
AGFHRWNNYMMDWK [BuChE peptide],competition for the binding of antibody to immobilised AChE-peptide,anti-peptide antibody,could not compete
same,calcium channel opening activity,[2],inactive
same,effect of the fragment alone on calcium potentials,[2],without corresponding effect
same,effect on the activity of the AChE fragment,[2],inactive
acetylcholinesterase [AChE],circling behaviour (activity of the nigrostriatal pathway),substantia nigra,long-term increase in circling behaviour
recombinant AChE,competition for the binding of antibody to immobilised AChE-peptide,anti-peptide antibody,effective competitor
